We go through 22 compounds from patent US20240279233A1, “MACROCYCLIC TAK1 INHIBITORS” (Aqilion AB, priority 2021, published 2024).

Data set [1] can be described thus: Solubility assay in phosphate buffer. The note with it: phosphate buffer 100 mM, pH 7.4, room temperature, 20-24 h, LC-UV.
Protocol: The aqueous solubility of selected example compounds was determined as follows; 6 μL of DMSO stock solution of the selected example was added to 594 μL phosphate buffer (100 mM, pH 7.4). The resulting mixture was equilibrated over night (20-24 h, Alligator Shaker, room temperature). The mixture was then filtered (Millex LH 0.45 μm) and the concentration/solubility was determined by LC-UV quantification.
Data set [2] addresses human recombinant TAK1-TAB1 Kinase (TAK1 (1-303) and TAB1 (437-end)) (Homo sapiens (Human), UniProt O43318). Kind of data set: TAK1 biochemical ADP-Glo kinase assay. The note with it: MBP substrate. In a few lines: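 Inhibition of human recombinant TAK1-TAB1 kinase was measured with a Promega ADP-Glo luminescence assay in 384-well plates. Compounds in 5% DMSO were pre-incubated 10 min with 2 μl TAK1-TAB1 (7.5 ng/μl) in buffer of Tris pH 7.5, MgCl2, DTT and BSA. MBP substrate and ATP were then added for 1 hour at room temperature. ADP-Glo reagent and kinase detection substrate followed, luminescence was read on an Envision, and IC50 came from non-linear regression.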

[3] abbreviates: phosphate buffer, pH 7.4, aqueous buffer, kinetic from dmso stock, Solubility (μM).
Setting [4] is: 10 μM ATP, read-out: TAK1 Mean IC50 (nM) @ 10 μM ATP.

In brackets after ≈: the same amount, converted by molar mass. Read-outs that look alike come from different tables or passages of the source.

Sequence of human recombinant TAK1-TAB1 Kinase (TAK1 (1-303) and TAB1 (437-end)) (O43318 other isoform, or with tags, fused parts or gaps): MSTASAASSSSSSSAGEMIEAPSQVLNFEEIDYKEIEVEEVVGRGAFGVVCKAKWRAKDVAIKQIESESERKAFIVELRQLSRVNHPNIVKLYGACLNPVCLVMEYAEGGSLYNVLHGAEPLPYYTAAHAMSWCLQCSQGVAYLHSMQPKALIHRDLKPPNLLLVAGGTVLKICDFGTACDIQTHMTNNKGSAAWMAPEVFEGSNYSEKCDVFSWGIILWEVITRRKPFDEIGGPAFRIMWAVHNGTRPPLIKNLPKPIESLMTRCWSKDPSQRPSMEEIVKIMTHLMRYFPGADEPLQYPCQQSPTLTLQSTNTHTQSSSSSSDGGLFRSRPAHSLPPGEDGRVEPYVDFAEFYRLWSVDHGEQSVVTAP

With `O=C1/N=C2\Nc3cccc(C(=O)N4CCN(C5COC5)CC4)c3N2CCCCCNC(=O)c2cccc1c2` [Example 19, (E)-1^7-(4-(oxetan-3-yl)piperazine-1-carbonyl)-1^2,1^3-dihydro-1^1H-2,6-diaza-1(2,1)-benzo[d]imidazola-4(1,3)-benzenacycloundecaphane-3,5-dione], the solubility in data set [1] (setting [3]) stood at 8.5 µM (≈ 4.39 µg/mL). Besides, the IC50 in data set [2] (setting [4]) stood at 7 nM.

In the case of `C[C@@H]1CN(C)CCN1C(=O)c1cccc2c1N1CCCCCNC(=O)c3cccc(c3)C(=O)/N=C/1N2` [Example 20, (R,E)-1^7-(2,4-dimethylpiperazine-1-carbonyl)-1^2,1^3-dihydro-1^1H-2,6-diaza-1(2,1)-benzo[d]imidazola-4(1,3)-benzenacycloundecaphane-3,5-dione], the solubility in data set [1] (setting [3]) was determined as 35 µM (≈ 17.1 µg/mL). Also, the IC50 in data set [2] (setting [4]) was 19 nM.

Regarding `CN(C)[C@H]1CCN(C(=O)c2cccc3c2N2CCCCCNC(=O)c4cccc(c4)C(=O)/N=C/2N3)C1` [Example 21, (S,E)-1^7-(3-(dimethylamino)pyrrolidine-1-carbonyl)-1^2,1^3-dihydro-1^1H-2,6-diaza-1(2,1)-benzo[d]imidazola-4(1,3)-benzenacycloundecaphane-3,5-dione], the solubility in data set [1] (setting [3]) was 85.1 µM (≈ 41.6 µg/mL). For the same compound, the IC50 in data set [2] (setting [4]) is 7 nM.

`CN1C[C@@H]2C[C@H]1CN2C(=O)c1cccc2c1N1CCCCCNC(=O)c3cccc(c3)C(=O)/N=C/1N2` [Example 22, (E)-1^7-((1S,4S)-5-methyl-2,5-diazabicyclo[2.2.1]heptane-2-carbonyl)-1^2,1^3-dihydro-1^1H-2,6-diaza-1(2,1)-benzo[d]imidazola-4(1,3)-benzenacycloundecaphane-3,5-dione]: in data set [1] (setting [3]), the solubility was 88.5 µM (≈ 43.1 µg/mL). Moreover, the IC50 in data set [2] (setting [4]) worked out at 9 nM.

The compound `CN(C)[C@@H]1CCN(C(=O)c2cccc3c2N2CCCCCNC(=O)c4cccc(c4)C(=O)/N=C/2N3)C1` [Example 23, (R,E)-1^7-(3-(dimethylamino)pyrrolidine-1-carbonyl)-1^2,1^3-dihydro-1^1H-2,6-diaza-1(2,1)-benzo[d]imidazola-4(1,3)-benzenacycloundecaphane-3,5-dione] had a solubility in data set [1] (setting [3]) of 83.3 µM (≈ 40.7 µg/mL). Besides, the IC50 in data set [2] (setting [4]) stood at 8 nM.

Consider `C[C@H]1CN(C)CCN1C(=O)c1cccc2c1N1CCCCCNC(=O)c3cccc(c3)C(=O)/N=C/1N2` [Example 24, (S,E)-1^7-(2,4-dimethylpiperazine-1-carbonyl)-1^2,1^3-dihydro-1^1H-2,6-diaza-1(2,1)-benzo[d]imidazola-4(1,3)-benzenacycloundecaphane-3,5-dione], for which, in data set [1] (setting [3]), the solubility amounted to 26.2 µM (≈ 12.8 µg/mL). Moreover, the IC50 in data set [2] (setting [4]) came to 4 nM.

Turning to `CN1C[C@H]2C[C@@H]1CN2C(=O)c1cccc2c1N1CCCCCNC(=O)c3cccc(c3)C(=O)/N=C/1N2` [Example 25, (E)-1^7-((1R,4R)-5-methyl-2,5-diazabicyclo[2.2.1]heptane-2-carbonyl)-1^2,1^3-dihydro-1^1H-2,6-diaza-1(2,1)-benzo[d]imidazola-4(1,3)-benzenacycloundecaphane-3,5-dione], the solubility in data set [1] (setting [3]) amounted to 82 µM (≈ 39.9 µg/mL). For the same compound, the IC50 in data set [2] (setting [4]) was determined as 2 nM.

For the compound `CN1CCCN(C(=O)c2cccc3c2N2CCCCCNC(=O)c4cccc(c4)C(=O)/N=C/2N3)CC1` [Example 26, (E)-1^7-(4-methyl-1,4-diazepane-1-carbonyl)-1^2,1^3-dihydro-1^1H-2,6-diaza-1(2,1)-benzo[d]imidazola-4(1,3)-benzenacycloundecaphane-3,5-dione], the solubility in data set [1] (setting [3]) worked out at 78.7 µM (≈ 38.5 µg/mL). Also, the IC50 in data set [2] (setting [4]) was found to be 5 nM.

On to `C[C@@H]1CCCCNC(=O)c2cccc(c2)C(=O)/N=C2\Nc3cccc(C(=O)N4C[C@H]5C[C@@H]4CN5C)c3N21` [Example 29, (R, E)-11-methyl-1^7-((1R,4R)-5-methyl-2,5-diazabicyclo[2.2.1]heptane-2-carbonyl)-1^2,1^3-dihydro-1^1H-2,6-diaza-1(2,1)-benzo[d]imidazola-4(1,3)-benzenacycloundecaphane-3,5-dione], for which the solubility in data set [1] (setting [3]) was 95 µM (≈ 47.6 µg/mL). For the same compound, the IC50 in data set [2] (setting [4]) is 6 nM.

Compound `C[C@H]1CCCCNC(=O)c2cccc(c2)C(=O)/N=C2\Nc3cccc(C(=O)N4C[C@H]5C[C@@H]4CN5C)c3N21` [Example 30, (S, E)-11-methyl-1^7-((1R,4R)-5-methyl-2,5-diazabicyclo[2.2.1]heptane-2-carbonyl)-1^2,1^3-dihydro-1^1H-2,6-diaza-1(2,1)-benzo[d]imidazola-4(1,3)-benzenacycloundecaphane-3,5-dione] returned a solubility in data set [1] (setting [3]) of 95 µM (≈ 47.6 µg/mL). Besides, the IC50 in data set [2] (setting [4]) was 8 nM.

In data set [1] (setting [3]), `CC1CCCCNC(=O)c2cccc(c2)C(=O)/N=C2\Nc3cccc(C(=O)N4CCC4)c3N21` (stereo not drawn) [Example 43, (E)-1^7-(azetidine-1-carbonyl)-11-methyl-1^2,1^3-dihydro-1^1H-2,6-diaza-1(2,1)-benzo[d]imidazola-4(1,3)-benzenacycloundecaphane-3,5-dione] returned a solubility of 16 µM (≈ 7.13 µg/mL). Moreover, the IC50 in data set [2] (setting [4]) was determined as 4 nM.

`C[C@H]1CCCCn2c(nc3cccc(C(=O)N(C)C)c32)NC(=O)c2cccc(c2)C(=O)N1` [Example 44, (S,E)-N,N,7-trimethyl-3,5-dioxo-1^2,1^3-dihydro-1^1H-2,6-diaza-1(2,1)-benzo[d]imidazola-4(1,3)-benzenacycloundecaphane-1^7-carboxamide] had a solubility in data set [1] (setting [3]) of 26 µM (≈ 11.3 µg/mL). Moreover, in data set [2] (setting [4]), the half-maximal inhibitory concentration (IC50) came to 223 nM.

Consider `CC(=O)Nc1cccc2c1N1/C(=N/C(=O)c3cccc(c3)C(=O)NCCCCC1C)N2` (stereo not drawn) [Example 45, (E)-N-(11-methyl-3,5-dioxo-1^2,1^3-dihydro-1^1H-2,6-diaza-1(2,1)-benzo[d]imidazola-4(1,3)-benzenacycloundecaphane-1^7-yl)acetamide], for which the solubility in data set [1] (setting [3]) is 74 µM (≈ 31 µg/mL). In data set [2] (setting [4]), the IC50 stood at 4 nM.

The compound `CC(C)N(C)C(=O)c1cccc2c1N1/C(=N/C(=O)c3cccc(c3)C(=O)NCCCCC1C)N2` (stereo not drawn) [Example 47, (E)-N-isopropyl-N,11-dimethyl-3,5-dioxo-1^2,1^3-dihydro-1^1H-2,6-diaza-1(2,1)-benzo[d]imidazola-4(1,3)-benzenacycloundecaphane-1^7-carboxamide] showed a solubility in data set [1] (setting [3]) of 42 µM (≈ 19.4 µg/mL). Besides, the IC50 in data set [2] (setting [4]) was 1 nM.

In the case of `CC(C)N(C)C(=O)c1cccc2c1N1/C(=N/C(=O)c3cccc(c3)C(=O)NCCCCC1C)N2` (stereo not drawn) [Example 48, (E)-N-isopropyl-N,11-dimethyl-3,5-dioxo-1^2,1^3-dihydro-1^1H-2,6-diaza-1(2,1)-benzo[d]imidazola-4(1,3)-benzenacycloundecaphane-1^7-carboxamide], the “solubility” value in data set [1] was 24.0 µM (≈ 11.1 µg/mL). Further, in data set [2] (setting [4]), the IC50 was found to be 1 nM.

In data set [1] (setting [3]), `COC1(C)CN(C(=O)c2cccc3c2N2/C(=N/C(=O)c4cccc(c4)C(=O)NCCCCC2C)N3)C1` (stereo not drawn) [Example 49, (E)-1^7-(3-methoxy-3-methylazetidine-1-carbonyl)-11-methyl-1^2,1^3-dihydro-1^1H-2,6-diaza-1(2,1)-benzo[d]imidazola-4(1,3)-benzenacycloundecaphane-3,5-dione] displayed a solubility of 89 µM (≈ 43.6 µg/mL). Moreover, the IC50 in data set [2] (setting [4]) stood at 3 nM.

For the compound `COC1(C)CN(C(=O)c2cccc3c2N2/C(=N/C(=O)c4cccc(c4)C(=O)NCCCCC2C)N3)C1` (stereo not drawn) [Example 50, (E)-1^7-(3-methoxy-3-methylazetidine-1-carbonyl)-11-methyl-1^2,1^3-dihydro-1^1H-2,6-diaza-1(2,1)-benzo[d]imidazola-4(1,3)-benzenacycloundecaphane-3,5-dione], the “solubility” value in data set [1] stood at 80.0 µM (≈ 39.2 µg/mL). Further, the IC50 in data set [2] (setting [4]) is 3 nM.

With `C[C@@H]1CCCCNC(=O)c2cccc(c2)C(=O)Nc2nc3ccc(Cl)c(C(=O)N(C)C)c3n21` [Example 55, (R,E)-1^6-chloro-N,N,11-trimethyl-3,5-dioxo-1^2,1^3-dihydro-1^1H-2,6-diaza-1(2,1)-benzo[d]imidazola-4(1,3)-benzenacycloundecaphane-1^7-carboxamide], the “solubility” value in data set [1] came out at 74.0 µM (≈ 34.6 µg/mL). Also, the IC50 in data set [2] (setting [4]) was determined as 6 nM.

Take `C[C@@H]1CCCCNC(=O)c2cccc(c2)C(=O)Nc2nc3ccc(Cl)c(C(=O)N(C)C)c3n21` [Example 56, (R,E)-1^6-chloro-N,N,11-trimethyl-3,5-dioxo-1^2,1^3-dihydro-1^1H-2,6-diaza-1(2,1)-benzo[d]imidazola-4(1,3)-benzenacycloundecaphane-1^7-carboxamide]: the “solubility” value in data set [1] was 7.1 µM (≈ 3.32 µg/mL). Moreover, the IC50 in data set [2] (setting [4]) was found to be 16 nM.

In data set [1] (setting [3]), `[2H]C([2H])([2H])N(C(=O)c1cccc2c1N1/C(=N/C(=O)c3cccc(c3)C(=O)NCCCC[C@H]1C)N2)C([2H])([2H])[2H]` [Example 64, (R,E)-11-methyl-N,N-bis(methyl-d3)-3,5-dioxo-1^2,1^3-dihydro-1^1H-2,6-diaza-1(2,1)-benzo[d]imidazola-4(1,3)-benzenacycloundecaphane-1^7-carboxamide] came in with a solubility of 44 µM (≈ 19.3 µg/mL). The IC50 in data set [2] (setting [4]) came to 3 nM.

`C[C@@H]1CCCCNC(=O)c2cccc(c2)C(=O)Nc2nc3cc(C(C)(C)O)cc(C(=O)N(C)C)c3n21` [Example 69, (R,E)-1^5-(2-hydroxypropan-2-yl)-N,N,11-trimethyl-3,5-dioxo-1^2,1^3-dihydro-1^1H-2,6-diaza-1(2,1)-benzo[d]imidazola-4(1,3)-benzenacycloundecaphane-1^7-carboxamide]: the solubility in data set [1] (setting [3]) is 93 µM (≈ 45.7 µg/mL). Besides, in data set [2] (setting [4]), the IC50 stood at 2 nM.

Compound `C[C@H]1CCCCNC(=O)c2cccc(c2)C(=O)/N=C2\Nc3cccc(N4CCN(C)C4=O)c3N21` [Example 74, (S,E)-11-methyl-1^7-(3-methyl-2-oxoimidazolidin-1-yl)-1^2,1^3-dihydro-1H-2,6-diaza-1(2,1)-benzo[d]imidazola-4(1,3)-benzenacycloundecaphane-3,5-dione] registered a solubility in data set [1] (setting [3]) of 90 µM (≈ 41.4 µg/mL). Besides, the half-inhibitory concentration (IC50) in data set [2] (setting [4]) stood at 7 nM; in data set [2] (1 mM ATP, read-out: TAK1 Mean IC50 (nM) @ 1 mM ATP), 11 nM.
